Changes are numbered by the printed parent chain. Where two headings read alike, the source gives them in different places.

One experiment deals with T1, human 5-HT1A receptor (Homo sapiens, UniProt P08908).
T1 construct: host or cells: HEK293T
T1 sequence (P08908 1-422): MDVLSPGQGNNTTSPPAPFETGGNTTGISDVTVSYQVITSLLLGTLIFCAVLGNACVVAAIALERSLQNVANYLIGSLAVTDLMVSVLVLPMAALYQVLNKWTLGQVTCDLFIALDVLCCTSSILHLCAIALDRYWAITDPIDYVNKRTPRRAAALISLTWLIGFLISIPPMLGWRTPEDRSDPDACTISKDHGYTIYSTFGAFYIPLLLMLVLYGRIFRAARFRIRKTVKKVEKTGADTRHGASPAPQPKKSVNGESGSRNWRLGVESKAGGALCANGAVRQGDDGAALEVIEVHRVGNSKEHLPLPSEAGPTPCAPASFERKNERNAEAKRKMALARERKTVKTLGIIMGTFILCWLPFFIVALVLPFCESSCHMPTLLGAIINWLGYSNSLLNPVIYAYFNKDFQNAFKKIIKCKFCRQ
Briefly: Radioligand binding (saturation and competition), WT 5-HT1A.

Experiment [1] concerns the target T2, V3.33I 5-HT1A receptor (Homo sapiens, UniProt P08908, V117I).
T2 sequence (P08908 1-422 V117I): T1 sequence (P08908 1-422) with V117I
Description: Radioligand binding, V3.33I 5-HT1A.
Description: (§4) 48 hours after transfection with the desired receptor construct, cells were isolated for saturation and competition binding assays as previously described.[47],[48],[57] Saturation and competition radioligand binding assays were conducted in an assay buffer consisting of 50 mM Tris HCl, 10 mM MgCl2, and 0.1 mM EDTA in filtered deionized water. […] Briefly, 5–10 μg of the receptor protein, as determined by a Thermo Fisher Pierce BCA protein assay kit, was incubated with 8 concentrations of radioligand in triplicate to determine total binding. […] Nonspecific binding was determined as above for saturation assays.
(§5) For radioligand binding data, nonspecific binding was subtracted from the total binding to get specific binding. Saturation binding data was fit to the “binding saturation-specific binding with hill slope” model. Competition binding data were fit to the “binding competition-one-site fit Ki” non-linear regression model and transformed to pKi values, reported as mean ± SD.
(§6) is 50 mM Tris HCl, 10 mM MgCl2 and 0.1 mM EDTA in filtered deionized water.

A further experiment has as its target T3, N7.39T 5-HT1A receptor (Homo sapiens, UniProt P08908, N386T).
T3 sequence (P08908 1-422 N386T): T1 sequence (P08908 1-422) with N386T
Briefly: Radioligand binding, N7.39T 5-HT1A.

The target in the next experiment is T4, Y5.38A 5-HT1A receptor (Homo sapiens, UniProt P08908, Y195A).
T4 sequence (P08908 1-422 Y195A): T1 sequence (P08908 1-422) with Y195A
Briefly: cAMP accumulation in HEK293T cells, Y5.38A 5-HT1A. In kind it is cell-based. To be noted: point-mutated receptor, 3 independent experiments, read-out: pEC50 5-HT1A Receptor Y5.38A (converted). Details: mutated in house (Quikchange II) HTR01A0000; host or cells: HEK293T. How it is done: (§1) Briefly, cells transfected with the desired receptor construct and compounds were incubated in the dark for 90 min at 37 °C. After incubation, cAMP detection reagents were added, and TR-FRET was used to quantify the cAMP produced.
(§2) The functional activity of compounds was determined by stimulating cells expressing the desired receptor with FSK and test compound in parallel with 12 known concentrations of cAMP. The known concentrations of cAMP were used to create a standard curve for each experiment that was used to interpolate the unknown values of cAMP in wells with test compounds. […] The EC50 and EMAX values were determined using the “dose response – log[agonist] vs response (three parameter)” nonlinear regression model in Prism and transformed to pEC50 values, reported as mean ± SD.
(§3) Summary of functional assay conditions at various 5-HT1 receptor point mutation constructs.

Experiment [2] concerns the target T2, V3.33I 5-HT1A receptor. Description: cAMP accumulation in HEK293T cells, V3.33I 5-HT1A. Set-up: mutated in house (Quikchange II) HTR01A0000; host or cells: HEK293T. It counts as cell-based. To be noted: point-mutated receptor, 3 independent experiments, read-out: pEC50 5-HT1A Receptor V3.33I (converted). How it is done:
as §1, §2, §3

In the next experiment the target is T7.39N 5-HT1B receptor (Homo sapiens, UniProt P28222, T355N). Description: cAMP accumulation in HEK293T cells, T7.39N 5-HT1B. Details: host or cells: HEK293T. The conditions noted are these: point-mutated receptor, 3 independent experiments, read-out: pEC50 5-HT1B Receptor N7.39T (converted). In kind it is cell-based. How it is done:
as §1, §2, §3

Chain of T7.39N 5-HT1B receptor (P28222 whole entry T355N): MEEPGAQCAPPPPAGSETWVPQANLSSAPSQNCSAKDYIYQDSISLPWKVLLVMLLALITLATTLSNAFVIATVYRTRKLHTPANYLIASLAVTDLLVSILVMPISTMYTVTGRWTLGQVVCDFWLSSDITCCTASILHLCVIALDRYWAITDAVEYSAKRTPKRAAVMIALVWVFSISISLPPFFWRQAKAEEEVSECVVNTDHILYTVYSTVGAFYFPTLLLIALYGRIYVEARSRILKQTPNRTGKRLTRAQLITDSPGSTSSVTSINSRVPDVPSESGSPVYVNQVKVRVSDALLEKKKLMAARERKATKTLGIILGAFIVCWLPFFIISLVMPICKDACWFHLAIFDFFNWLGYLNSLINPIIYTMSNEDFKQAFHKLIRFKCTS
Description for N7.39T 5-HT1A receptor: as §4, §5, §6

`CN(C)[C@H]1CCc2c(cccc2-c2cccc3ccccc23)C1` [(S)-NAP]: the Ki on human 5-HT1A receptor (Affinity (pKi ± SD) 5-HT1A, WT receptor, [^3H]5-CT competition, mean ± SD) was 0.0617 µM; at V3.33I 5-HT1A receptor [1] it was 0.0631 µM; at N7.39T 5-HT1A receptor, 0.0661 µM. The EC50 at Y5.38A 5-HT1A receptor was 4.68 µM; at V3.33I 5-HT1A receptor [2] it was 0.355 µM; on T7.39N 5-HT1B receptor, 0.0372 µM.

`Fc1ccccc1-c1cccc2c1CC[C@H](N1CCCC1)C2` [(S)-PFPT]: the Ki on human 5-HT1A receptor (read-out: Affinity (pKi ± SD) 5-HT1A (converted)) is 0.00126 µM; at V3.33I 5-HT1A receptor [1], 0.00813 µM; at N7.39T 5-HT1A receptor, 0.00851 µM. For the same molecule, the EC50 at Y5.38A 5-HT1A receptor was 0.00204 µM; at V3.33I 5-HT1A receptor [2] it was 0.0105 µM; at T7.39N 5-HT1B receptor, 0.0195 µM.

The values are drawn from article PMC10797628.
